One data set relates to EndoG−/− MEFs. In words: Quantification of cytosolic mtDNA (cmtDNA) in EndoG−/− MEFs. In kind it is cell-based, mouse. The conditions noted are these: VBIT-4 (10 μM), real-time PCR. As to the method:
MEFs were resuspended in 170 μl digitonin buffer containing 150 mM NaCl, 50 mM HEPES pH 7.4, and 25 μg/ml digitonin (EMD Millipore Corp). The homogenates were incubated on a rotator for 10 min at room temperature, followed by centrifugation at 16,000 g for 25 min at 4° C. A 1:20 dilution of the supernatant (cmtDNA) was used for real-time RT-PCR. The pellet was resuspended in 340 μl lysis buffer containing 5 mM EDTA and proteinase K (Qiagen) and incubated at 55° C. overnight. The digested pellet was diluted with water (1:20 to 1:100) and heated at 95° C. for 20 min to inactivate proteinase K, and the sample was used for real-time PCR. The primers used were as follow (5′-3′): D-loop1 forward (SEQ ID NO:64), and reverse (SEQ ID NO:65); D-loop2 forward (SEQ ID NO:66), and reverse (SEQ ID NO:67); D-loop3 forward (SEQ ID NO:68), and reverse (SEQ ID NO:69). The cmtDNA in the supernatant was normalized to the total mitochondrial DNA in the pellet for each sample.
(Real-time PCR tracks product formation cycle by cycle.)

A further data set concerns PTP. Briefly: Mitochondrial swelling assay (PTP opening). The conditions noted are these: purified mitochondria, Ca2+-induced swelling. How it is done:
(§1) The PTP opening was analyzed following mitochondria swelling. Briefly, freshly isolated mitochondria (0.5 mg/ml) were incubated for 2 min at 24° C. with the indicated concentrations of VBIT-4 for Ca^2+-induced mitochondrial swelling assay. Swelling was initiated by the addition of Ca^2+ (0.1 mM) to the sample cuvette. Absorbance changes at 520 nm were monitored every 16 s for 15 min. Cyclosporine A 10 μM) was used as a positive control. […] Ca^2+ accumulation by freshly isolated rat liver mitochondria (0.5 mg/ml) was assayed with the indicated concentrations of VBIT-4 in the presence of […] CaCl2) (containing [^45Ca^2+]), 220 mM mannitol, 70 mM sucrose, 5 mM succinate, 0.15 mM Pi and 15 mM Tris/HCl, pH 7.2. Ca^2+ uptake was terminated by rapid Millipore filtration (0.45 μm).

For a further data set, the system named is rat liver mitochondria. Briefly: Ca2+ accumulation by isolated mitochondria. The conditions noted are these: purified mitochondria. As to the method:
as §1

The target in the next data set is T1, VDAC1 (Rattus norvegicus, UniProt Q9Z2L0).
T1 construct: from tissue; host or cells: rat liver mitochondria (inferred)
T1 sequence (Q9Z2L0 whole entry): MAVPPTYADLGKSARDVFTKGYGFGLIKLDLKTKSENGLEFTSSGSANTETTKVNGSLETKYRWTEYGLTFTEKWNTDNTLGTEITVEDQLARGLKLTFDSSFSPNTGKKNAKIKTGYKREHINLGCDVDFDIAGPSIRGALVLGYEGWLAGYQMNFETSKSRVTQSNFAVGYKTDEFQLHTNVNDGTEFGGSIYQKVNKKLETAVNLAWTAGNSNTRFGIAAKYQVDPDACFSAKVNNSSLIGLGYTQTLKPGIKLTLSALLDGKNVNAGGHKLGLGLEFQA
Briefly: mtDNA efflux from liposomes reconstituted with VDAC1. The class given is biochemical. Conditions: VDAC1-containing mtDNA-loaded liposomes.

Another data set relates to MRL/lpr mice. Briefly: MRL/lpr lupus-prone mouse model. The class given is in vivo. As to the method:
All experiments were approved by the ACUC (Animal Care and Use Committee) of the NIH/NHLBI. Lupus-prone female MRL/MpJ-Fas^lpr/J mice (stock #000485, n=10 in each group), used as a model to determine the etiology of systemic lupus erythematosus (SLE), were purchased from The Jackson Laboratory. VIBIT4 was freshly dissolved in DMSO and diluted in water (final pH 5.0). The mice were treated with a daily dose of VBIT-4 (20 mg/kg) or vehicle in drinking water for 5 weeks, beginning at 11 weeks of age until euthanasia at 16 weeks of age. Blood and urine samples were collected when the mice were 16 weeks of age. The body weight of the mice was measured before and after VBIT-4 administration (at 11 and 16 weeks of age).
Proteinuria in fresh urine was measured using creatinine and albumin ELISA kits (Exocell), and mouse albumin was used to determine the proteinuria:creatinine ratio following the manufacturer's instructions.
Circulating mtDNA was isolated from 500 μl of serum using QIAamp Circulating Nucleic Acid Kit (Qiagen) according to the manufacturer's protocol. Briefly, serum samples were incubated with proteinase K and carrier RNA at 55° C. for 30 min in lysis buffer, and the circulating nucleic acids were bound to the silica membrane by applying vacuum pressure. After washing, the eluted samples were used for real-time RT-PCR. Primers of the mtDNA D-loop3 regions were used to quantify serum mtDNA. Anti-dsDNA antibodies were detected at 1:200 serum dilution using an ELISA kit (Alpha Diagnostic).
Kidneys were harvested after perfusion with PBS from MRL/lpr mice. Frozen kidney sections were fixed in cold acetone for 20 min, washed, and blocked for 18 h at 4° C. with 4% BSA in PBS. To detect glomerular deposits, the sections were stained with FITC-conjugated anti-mouse C3 antibody (GC3-90E-Z, Immunology Consultants Laboratory) and Alexa Fluor 594-conjugated anti-Mouse IgG antibody (A-11020, Invitrogen) with Hoechst staining at 1:100 dilution (Life Technologies) for 1 h at room temperature. After washing with PBS, the tissues were mounted, and the slides were observed using a LSM880 laser confocal microscope. The fluorescence intensity score was determined after analyzing random images for each animal in a blinded manner.

Data set [1] has as its system low-density granulocytes (LDG) and normal-density granulocytes (NDG). In words: NET formation (NETosis) in granulocytes. In kind it is cell-based, human. As to the method: Normal-density granulocytes (NDGs) were isolated from heparinized venous blood using a Ficoll-Paque gradient (GE Healthcare) with dextran (Sigma-Aldrich) sedimentation, followed by red blood cell lysis using hypotonic NaCl. From the PBMC layer, low-density granulocytes (LDGs) were isolated using a negative selection method. The cells were resuspended in RPMI 1640 medium for further characterization. NETs were induced in NDGs by incubating cells with calcium ionophore A23187 (25 μM) (Thermo Fisher) in RPMI 1640 medium for 2 h, and NETs were quantified using SYTOX fluorescent dye at 485/520 nm to quantify extracellular DNA. The fluorescence of PicoGreen (Life Technologies) at t=0 min was measured at 485/520 nm […] to quantify the total DNA. The fluorescence was quantified using a microplate reader (Synergy HTX; BIOTEK). NETs were also quantified by fluorescence microscopy. Briefly, the cells were attached to coverslip chambers, stimulated for 90 min at 37° C. with calcium ionophore, fixed with 4% paraformaldehyde overnight at 4° C., and permeabilized with 0.2% Triton X-100 for 10 min, followed by 0.5% gelatin for 20 min. The cells were stained with antibodies against human neutrophil elastase (ab21595, Abcam) for 2 h at room temperature, washed in PBS, and stained with Hoechst 33342 (Life Technologies) and Alexa Fluor 488 secondary antibody (A31570, Life Technologies) for 2 h at room temperature. After mounting, the cells were visualized with a LSM780 confocal microscope.

The mark [2] stands for this setting: VBIT-4 20 mg/kg daily in drinking water, 5 weeks.

Consider `O=C(CC(CO)N1CCN(c2ccc(OC(F)(F)F)cc2)CC1)Nc1ccc(Cl)cc1` (stereo not shown) [VBIT-4, N-(4-chlorophenyl)-4-hydroxy-3-(4-(4-(trifluoromethoxy)phenyl)-piperazin-1-yl)butanamide], for which the cmtDNA result in the data set on EndoG−/− MEFs is reported as “decreased”. Also, the PTP opening entry in the data set with PTP is “did not prevent”. The “Ca2+ uptake” value with rat liver mitochondria is listed as “did not prevent”. On VDAC1, the “mtDNA release from liposomes” value is listed as “decreased”. In addition, the “weight of spleen and lymph node” value with MRL/lpr mice (20 mg/kg daily, 5 weeks, at 16 weeks of age) is recorded as “reduced”. Further, the “renal immune complex deposition” value with MRL/lpr mice (C3 and IgG in kidney glomeruli, compared with vehicle-treated mice) was “significantly diminished”. In addition, the “alopecia of face and dorsal” value in the data set with MRL/lpr mice (setting [2]) is recorded as “suppressed”. In addition, in the data set on MRL/lpr mice (setting [2]), the “development of skin lesions” value is reported as “blocked”. The mortality result with MRL/lpr mice (setting [2]) is “did not cause any mortality”. In addition, the “thickening of the epidermis that accompanies leukocyte infiltration” value with MRL/lpr mice (setting [2]) is “blocked”. Besides, in the data set with MRL/lpr mice (VBIT-4 20 mg/kg daily in drinking water, 5 weeks, 11 and 16 weeks of age), the “change in body weight” value was “did not cause any mortality or change in body weight”. In addition, in the data set with MRL/lpr mice (albumin:creatinine ratio, compared with vehicle-treated mice), the proteinuria entry is given as “significantly diminished”. The “serum anti-dsDNA” value in the data set with MRL/lpr mice (compared with vehicle-treated mice) was “significantly diminished”. For the same compound, the “cell-free mtDNA” value in the data set on MRL/lpr mice (serum, compared with vehicle-treated mice) is recorded as “significantly diminished”. Besides, the ISG induction result in the data set with MRL/lpr mice (spleen, real-time PCR, compared with vehicle-treated mice) is on record as “significantly diminished”. Further, the NETosis entry in data set [1] (LDG from lupus patients, spontaneous NET formation, VBIT-4 (5 μM), microscopy) was “strongly inhibited”; in data set [1] (NDG from healthy controls, SYTOX-PicoGreen plate assay), “strongly inhibited”; in data set [1] (NDG from lupus patients, A23187-stimulated, microscopy) it was “strongly inhibited”; in data set [1] (NDG from lupus patients, SYTOX-PicoGreen plate assay), “strongly inhibited”.
